The values that follow come from paper PMC10049026, “In Silico Binding of 2-Aminocyclobutanones to SARS-CoV-2 Nsp13 Helicase and Demonstration of Antiviral Activity” (International Journal of Molecular Sciences, 2023).

Where two headings read alike, the source gives them in different places.

For one data set, the target named is Helicase (NSP13). The note with it: cited from earlier work.
The test system of data set [1] is SARS-CoV-2. The note with it: cited from earlier work.
For data set [2] the following is noted: read-out: Tox CC50, cited from earlier work.
Data set [3] relates to SARS-CoV-2. The data set can be described thus: Cell survival following SARS-CoV-2 challenge. The format is cell-based.
Data set [4] has as its system wild-type (alpha strain, SARS-CoV-2, USA-WA1/2020) SARS-CoV-2. The data set can be described thus: Inhibition of SARS-CoV-2 mediated cell death, wild type (dose response). Format: cell-based.
The subject of data set [5] is SARS-CoV-2. Also on record: method as in Ref11. The conditions noted are these: in vivo (Sirian hamster); ref Ref11; cited from earlier work.
Where [6] appears, read: Severe acute respiratory syndrome coronavirus 2, wild-type (alpha strain, USA-WA1/2020), read-out: IC50 Values For inhibition of SARS-CoV-2 Mediated Cell Death, Wild Type.
Setting [7] is: Severe acute respiratory syndrome coronavirus 2, Vero, read-out: IC50, dose response anti-viral testing (Figure 4), alpha strain USA-WA1/2020, legend names Vero cells.
Where [8] appears, read: wild-type (alpha strain, USA-WA1/2020), read-out: IC50 Values For inhibition of SARS-CoV-2 Mediated Cell Death, Wild Type.

By CC50 is commonly meant the concentration giving 50% cytotoxicity. On to `O=C1O[C@H]2[C@@H]3OC(=O)c4cc(O)c(O)c(O)c4-c4c(O)c(O)c5oc(=O)c6c(c(O)c(O)c7oc(=O)c4c5c76)-c4c(cc(O)c(O)c4O)C(=O)OC[C@H]3OC(O)[C@@H]2OC(=O)c2cc(O)c(O)c(O)c2-c2c1cc(O)c(O)c2O` (mixture of isomers) [Punicalagin], for which the IC50 on Helicase (NSP13) (Enzyme assay, ref Ref5) was 0.43 µM; in the data set on SARS-CoV-2 [1] (in vitro assay, ref Ref5, read-out: Antiviral activity IC50), 0.347 µM. For the same molecule, the CC50 in data set [2] (ref Ref5) was 33.9 µM.

Consider `Cc1ccc(S(=O)(=O)N[C@@H](Cc2ccccc2)C(=O)NC2CCC2=O)cc1` (stereo partly drawn) [Compound 1, (2S)-2-((4-Methylphenyl)sulfonamido)-N-(2-oxocyclobutyl)-3-phenylpropanamide], for which the “Cell Survival following SARS-CoV-2 Challenge” value in the data set on SARS-CoV-2 [3] (5 µM inhibitor concentration) worked out at 39.3; in the data set on SARS-CoV-2 [3] (50 µM inhibitor concentration), 49.8. In addition, in data set [4] (setting [6]), the IC50 came to 15.4 µM.

Regarding `O=C(N[C@H](Cc1ccccc1)C(=O)NC1CCC1=O)OCc1ccccc1` (stereo partly drawn) [Compound 2, Benzyl ((2R)-1-oxo-1-((2-oxocyclobutyl)amino)-3-phenylpropan-2-yl) carbamate], the “Cell Survival following SARS-CoV-2 Challenge” value with SARS-CoV-2 [3] (5 µM inhibitor concentration) is 24.2; in the data set with SARS-CoV-2 [3] (50 µM inhibitor concentration) it was 34.7. In addition, the cell survival in the data set on SARS-CoV-2 [3] (at 5 µM) turned out to be 24.2%. For the same molecule, the figures for the IC50 in data set [4] (setting [7]) and in data set [4] (setting [6]) were 20.3 ± 14.4 µM and 6.89 µM, respectively. Moreover, in the data set on Vero cell line, the “toxicity / growth inhibition of Vero cell line” value (“toxicity / growth inhibition” for short) is recorded as “some inhibitory effect on Vero cell line growth”.

`CC(C)[C@H](NC(=O)OCc1ccccc1)C(=O)NC1CCC1=O` (stereo partly drawn) [Compound 3, Benzyl ((2S)-3-methyl-1-oxo-1-((2-oxocyclobutyl)amino)butan-2-yl) carbamate]: the “Cell Survival following SARS-CoV-2 Challenge” value worked out at 37.9 in the data set with SARS-CoV-2 [3] (5 µM inhibitor concentration) and 54.9 with SARS-CoV-2 [3] (50 µM inhibitor concentration). In addition, the IC50 in data set [4] (setting [7]) was 15.1 ± 8.22 µM; in data set [4] (setting [6]), 13.1 µM.

Regarding `Cc1ccc(S(=O)(=O)N[C@@H](Cc2c[nH]c3ccccc23)C(=O)NC2CCC2=O)cc1` (stereo partly drawn) [Compound 4, (2S)-3-(1H-Indol-3-yl)-2-((4-methylphenyl)sulfonamido)-N-(2-oxocyclobutyl)propanamide], the “Cell Survival following SARS-CoV-2 Challenge” value in the data set on SARS-CoV-2 [3] (5 µM inhibitor concentration) is on record as 54.3; in the data set on SARS-CoV-2 [3] (50 µM inhibitor concentration), 70.9. Besides, the IC50 in data set [4] (setting [7]) was 13.2 ± 2.35 µM; in data set [4] (Severe acute respiratory syndrome coronavirus 2, read-out: IC50 Values For inhibition of SARS-CoV-2 Mediated Cell Death, Wild Type, wild-type (alpha strain, USA-WA1/2020)), 6.7 µM; in data set [4] (setting [8]), 13 µM. Further, the “toxicity / growth inhibition” value with Vero cell line is “least toxic against the Vero cell line”.

For `Cc1ccc(S(=O)(=O)N[C@@H](Cc2ccccc2)C(=O)NCC2(O)CC2)cc1` [Compound 5, (S)-N-((1-hydroxycyclopropyl)methyl)-2-((4-methylphenyl)sulfonamido)-3-phenylpropanamide], the “Cell Survival following SARS-CoV-2 Challenge” value was determined as 30.0 in the data set on SARS-CoV-2 [3] (5 µM inhibitor concentration) and 30.7 in the data set on SARS-CoV-2 [3] (50 µM inhibitor concentration).

For `Cc1ccc(S(=O)(=O)N[C@H](Cc2ccccc2)C(=O)NC2CCC2=O)cc1` (stereo partly drawn) [Compound 6, (2R)-2-((4-Methylphenyl)sulfonamido)-N-(2-oxocyclobutyl)-3-phenylpropanamide], the “Cell Survival following SARS-CoV-2 Challenge” value is on record as 26.6 in the data set on SARS-CoV-2 [3] (5 µM inhibitor concentration) and 35.9 in the data set on SARS-CoV-2 [3] (50 µM inhibitor concentration).

Consider `O=C(N[C@@H](Cc1ccc(O)cc1)C(=O)NC1CCC1=O)OCc1ccccc1` (stereo partly drawn) [Compound 7, Benzyl ((2S)-3-(4-hydroxyphenyl)-1-oxo-1-((2-oxocyclobutyl)amino)propan-2-yl) carbamate], for which the figures for the “Cell Survival following SARS-CoV-2 Challenge” value in the data set on SARS-CoV-2 [3] (5 µM inhibitor concentration) and in the data set with SARS-CoV-2 [3] (50 µM inhibitor concentration) were -2 and 28.1, respectively.

In the case of `O=C(N[C@@H](Cc1ccccc1)C(=O)NC1CCC1=O)OCc1ccccc1` (stereo partly drawn) [Compound 9, Benzyl ((2S)-1-oxo-1-((2-oxocyclobutyl)amino)-3-phenylpropan-2-yl) carbamate], the “Cell Survival following SARS-CoV-2 Challenge” value is listed as 41.6 with SARS-CoV-2 [3] (5 µM inhibitor concentration) and 57.5 in the data set on SARS-CoV-2 [3] (50 µM inhibitor concentration). Also, the IC50 in data set [4] (setting [7]) is 8.53 ± 5.15 µM.

As for `Cc1ccc(S(=O)(=O)N[C@@H](Cc2ccccc2)C(=O)NCC(C)(C)O)cc1` [Compound 10, (S)-N-(2-hydroxy-2-methylpropyl)-2-((4-methylphenyl)sulfonamido)-3-phenylpropanamide], the figures for the “Cell Survival following SARS-CoV-2 Challenge” value in the data set on SARS-CoV-2 [3] (5 µM inhibitor concentration) and in the data set on SARS-CoV-2 [3] (50 µM inhibitor concentration) were 36.7 and 59.2, respectively. Moreover, the IC50 worked out at 6.95 ± 1.95 µM in data set [4] (setting [7]) and 6.68 µM in data set [4] (setting [6]). Further, the “toxicity / growth inhibition” value with Vero cell line is on record as “some inhibitory effect on Vero cell line growth”.

For the molecule `CCN(CC)C(=S)SSC(=S)N(CC)CC` [Disulfiram], the IC50 on Helicase (NSP13) (Enzyme and in vitro assay, ref Ref10) was 0.41 µM; with SARS-CoV-2 [1] (in vitro assay, ref Ref10, read-out: Antiviral activity IC50) it was 3.18 µM.

With `O=C(N/N=C/c1cc(O)c(O)cc1O)c1cc2ccccc2cc1O` [Dyngo-4a], the IC50 at Helicase (NSP13) (Enzyme assay, ref Ref5) was 0.63 µM.

With `C=C[C@@H]1C[C@]1(NC(=O)[C@@H]1C[C@@H]2CN1C(=O)[C@H](C(C)(C)C)NC(=O)O[C@@H]1C[C@H]1CCCCCc1nc3ccc(OC)cc3nc1O2)C(=O)NS(=O)(=O)C1CC1` [Grazoprevir], the IC50 in the data set with SARS-CoV-2 [1] (in vitro assay, ref Ref6, read-out: Antiviral activity IC50) is 1.41 µM.

As for `Oc1cc(O)c2c(c1)O[C@H](c1cc(O)c(O)c(O)c1)[C@H](O)[C@H]2c1c(O)cc(O)c2c1O[C@H](c1cc(O)c(O)c(O)c1)[C@H](O)[C@H]2c1c(O)cc(O)c2c1O[C@H](c1cc(O)c(O)c(O)c1)[C@H](O)C2` [Katacine], the IC50 on Helicase (NSP13) (Enzyme assay, ref Ref5) is 5.98 µM.

Take `CC(C)[C@H](NC(=O)CCCCCN1C(=O)C=CC1=O)C(=O)N[C@@H](CCCNC(N)=O)C(=O)Nc1ccc(COC(=O)Oc2ccc([N+](=O)[O-])cc2)cc1` [MC-Val-Cit-PABC-PNP]: the IC50 at Helicase (NSP13) (Enzyme assay, ref Ref5) was 2.45 µM.

For `CNC(=C[N+](=O)[O-])NCCSCc1ccc(CN(C)C)o1.O=C([O-])CC(O)(CC(=O)[O-])C(=O)[O-].[Bi+3]` [Ranitidine bismuth citrate], the IC50 at Helicase (NSP13) (In vitro & in vivo, ref Ref11, read-out: Enzyme Assay IC50) is 0.69 µM. For the same molecule, the CC50 in data set [2] (ref Ref11) was 3250 µM. For the same molecule, the “viral load redn in Animal lungs & nasal turbinate” value in the data set with SARS-CoV-2 [5] is recorded as 1 to 1.5 log.

Consider `CC(C)c1cc2c(c(O)c1O)[C@@]13CCCC(C)(C)[C@@H]1[C@H](OC3=O)[C@H]2O` [Rosmanol], for which the IC50 on Helicase (NSP13) (Enzyme assay, ref Ref5) is 8.93 µM.

On to `C=CCn1c(CSc2ccccc2[N+](=O)[O-])n[nH]c1=S` [SSYA10-001], for which, in data set [2] (In vitro, ref Ref4), the CC50 is 80.5 µM.

`O=C(O)CSc1cc(NS(=O)(=O)c2ccc(Br)cc2)c2ccccc2c1O` [UMI-77]: the IC50 at Helicase (NSP13) (Enzyme assay, ref Ref5) is 4.38 µM.

Regarding `COc1cc(C(=O)NS(=O)(=O)c2ccccc2C)ccc1Cc1cn(C)c2ccc(NC(=O)OC3CCCC3)cc12` [Zafirlukast], the IC50 on Helicase (NSP13) (Enzyme assay, ref Ref7) is 16.3 µM.

For `O=C([O-])c1cc(=O)[nH]c(=O)[nH]1.O=C([O-])c1cc(=O)[nH]c(=O)[nH]1.[Zn+2]` [Zinc Orotate], the IC50 at Helicase (NSP13) (Enzyme assay, ref Ref5) is 4.12 µM.

For the molecule `COc1ccc2cc1Oc1ccc(cc1)C[C@H]1c3c(cc4c(c3Oc3cc5c(cc3OC)CCN(C)[C@@H]5C2)OCO4)CCN1C` [cepharanthine], the IC50 with SARS-CoV-2 [1] (read-out: IC50, anti-SARS-CoV-2 activity) is 400 µM.

With `CC(C)=CCc1c(O)cc(O)c2c(=O)cc(-c3ccc(O)cc3)oc12` [licoflavone C], the IC50 on Helicase (NSP13) (Enzyme assay, ref Ref8) is 1.34 µM.

On to “(2R)-2-((4-Methoxyphenyl) sulfonamido)-3-methyl-N-(2-oxocyclobutyl) butanamide [Compound 8]”, for which the “Cell Survival following SARS-CoV-2 Challenge” value is reported as 32.0 with SARS-CoV-2 [3] (5 µM inhibitor concentration) and 49.1 in the data set with SARS-CoV-2 [3] (50 µM inhibitor concentration). In addition, in data set [4] (setting [8]), the IC50 came out at 13.7 µM.

For FPA124, the IC50 on Helicase (NSP13) (Enzyme assay, ref Ref9) is 8.5 µM; in the data set with SARS-CoV-2 [1] (ref Ref9, read-out: Antiviral activity IC50) it was 14 µM.

For Tannic acid, at Helicase (NSP13) (Enzyme assay, ref Ref5), the IC50 is 1.25 µM.
